Experimental data taken from publication PMC9007901 (European journal of medicinal chemistry, 2022).

How the values were obtained:
hHDAC8 = biological target: T1, hHDAC8 (Homo sapiens, UniProt Q9BY41); test: HDAC8 activity assay; type: biochemical
T1 sequence (Q9BY41 1-377): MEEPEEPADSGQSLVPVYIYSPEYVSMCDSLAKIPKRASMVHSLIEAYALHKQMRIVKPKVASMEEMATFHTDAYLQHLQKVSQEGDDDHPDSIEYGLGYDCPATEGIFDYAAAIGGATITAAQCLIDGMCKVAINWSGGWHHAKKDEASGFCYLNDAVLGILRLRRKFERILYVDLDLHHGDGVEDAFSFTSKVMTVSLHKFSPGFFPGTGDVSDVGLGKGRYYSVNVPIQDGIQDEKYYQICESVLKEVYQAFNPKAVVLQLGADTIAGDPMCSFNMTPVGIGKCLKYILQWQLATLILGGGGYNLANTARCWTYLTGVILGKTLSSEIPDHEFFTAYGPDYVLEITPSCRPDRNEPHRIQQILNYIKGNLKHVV

hHDAC6 = biological target: T2, hHDAC6 (Homo sapiens, UniProt Q9UBN7); test: recombinant HDAC6 homogenous fluorescence assay
T2 sequence (Q9UBN7 1-1215): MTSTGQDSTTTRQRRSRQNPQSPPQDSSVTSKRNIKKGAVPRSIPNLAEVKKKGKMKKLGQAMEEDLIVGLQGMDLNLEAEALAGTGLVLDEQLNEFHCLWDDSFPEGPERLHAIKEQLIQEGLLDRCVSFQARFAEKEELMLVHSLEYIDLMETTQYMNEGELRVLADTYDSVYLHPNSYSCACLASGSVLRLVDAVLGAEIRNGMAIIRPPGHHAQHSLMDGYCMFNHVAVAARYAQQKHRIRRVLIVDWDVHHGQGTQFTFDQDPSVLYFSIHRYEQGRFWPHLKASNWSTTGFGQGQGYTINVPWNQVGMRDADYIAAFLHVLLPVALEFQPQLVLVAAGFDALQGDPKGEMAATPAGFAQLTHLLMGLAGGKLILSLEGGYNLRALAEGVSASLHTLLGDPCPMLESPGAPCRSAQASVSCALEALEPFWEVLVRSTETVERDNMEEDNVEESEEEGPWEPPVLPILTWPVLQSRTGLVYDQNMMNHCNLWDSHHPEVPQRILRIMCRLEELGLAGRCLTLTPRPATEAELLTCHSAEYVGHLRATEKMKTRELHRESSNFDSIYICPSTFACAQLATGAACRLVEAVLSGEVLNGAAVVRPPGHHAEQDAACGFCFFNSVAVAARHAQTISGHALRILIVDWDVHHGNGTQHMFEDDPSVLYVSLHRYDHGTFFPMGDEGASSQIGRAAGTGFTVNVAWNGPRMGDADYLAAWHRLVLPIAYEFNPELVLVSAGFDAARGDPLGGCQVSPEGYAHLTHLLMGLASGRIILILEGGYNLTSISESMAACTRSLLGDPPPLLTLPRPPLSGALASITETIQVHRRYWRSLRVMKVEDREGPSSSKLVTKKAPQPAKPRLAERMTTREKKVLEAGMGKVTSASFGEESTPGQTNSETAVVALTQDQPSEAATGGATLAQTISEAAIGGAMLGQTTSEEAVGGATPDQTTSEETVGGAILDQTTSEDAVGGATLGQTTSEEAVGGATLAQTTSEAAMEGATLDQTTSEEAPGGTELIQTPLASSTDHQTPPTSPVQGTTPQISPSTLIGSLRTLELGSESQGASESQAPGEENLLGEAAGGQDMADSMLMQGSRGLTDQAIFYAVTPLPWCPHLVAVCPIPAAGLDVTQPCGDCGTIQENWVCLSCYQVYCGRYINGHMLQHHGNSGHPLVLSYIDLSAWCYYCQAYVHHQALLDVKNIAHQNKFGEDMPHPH

hHDAC1 = hHDAC1 (Homo sapiens, UniProt Q13547); test: recombinant HDAC1 homogenous fluorescence assay
[1] = tested on: SK-N-BE(2)-C neuroblastoma cells; test: LysoTracker assay; type: cell-based, Human; conditions: SK-N-BE(2)-C cells, 24 h
MV4–11 cells [2] = test: Annexin-V-FITC / PI flow cytometry; type: cell-based; conditions: 2–15 μM, 24 h
[3] = tested on: acetylated tubulin-α in MV4–11 cells; test: Immunoblot for acetylated tubulin-α; type: cell-based; conditions: 15 μM, 24 h, did not reach significance
drHDAC10 = biological target: T3, drHDAC10 (Danio rerio, UniProt F1QCV2); test: drHDAC10 enzymatic in vitro assay; type: biochemical
T3 sequence (F1QCV2 1-675): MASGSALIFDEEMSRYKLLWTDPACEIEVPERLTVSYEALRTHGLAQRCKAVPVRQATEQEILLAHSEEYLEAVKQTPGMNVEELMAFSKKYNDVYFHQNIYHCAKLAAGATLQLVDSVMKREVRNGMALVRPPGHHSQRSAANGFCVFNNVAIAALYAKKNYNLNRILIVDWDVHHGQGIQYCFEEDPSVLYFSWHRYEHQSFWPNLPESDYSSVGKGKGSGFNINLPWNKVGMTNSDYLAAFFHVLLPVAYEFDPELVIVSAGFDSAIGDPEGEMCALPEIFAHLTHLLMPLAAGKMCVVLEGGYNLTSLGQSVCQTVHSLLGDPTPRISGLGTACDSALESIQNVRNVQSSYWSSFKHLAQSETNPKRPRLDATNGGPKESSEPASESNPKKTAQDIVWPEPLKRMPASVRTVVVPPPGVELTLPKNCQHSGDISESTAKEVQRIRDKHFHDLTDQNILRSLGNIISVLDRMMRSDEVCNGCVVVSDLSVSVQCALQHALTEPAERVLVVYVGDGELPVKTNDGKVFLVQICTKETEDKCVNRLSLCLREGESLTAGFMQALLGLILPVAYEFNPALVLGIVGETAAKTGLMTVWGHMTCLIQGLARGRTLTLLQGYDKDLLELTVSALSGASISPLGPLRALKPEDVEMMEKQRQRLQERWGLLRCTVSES

[4] = tested on: acetylated histone H3 in MV4–11 cells; test: Immunoblot for acetylated histone H3; type: cell-based; conditions: 24 h
[5] = tested on: HDAC10 and GAPDH levels in MV4–11 cells; test: Immunoblot for HDAC10 and GAPDH levels; type: cell-based; conditions: 24 h
MV4–11 cells [6] = test: Cyto-ID detection of modulation of autophagy; type: cell-based; conditions: 2–15 μM, 24 h, with 10 μM chloroquine

Chain of hHDAC1 (Q13547 whole entry): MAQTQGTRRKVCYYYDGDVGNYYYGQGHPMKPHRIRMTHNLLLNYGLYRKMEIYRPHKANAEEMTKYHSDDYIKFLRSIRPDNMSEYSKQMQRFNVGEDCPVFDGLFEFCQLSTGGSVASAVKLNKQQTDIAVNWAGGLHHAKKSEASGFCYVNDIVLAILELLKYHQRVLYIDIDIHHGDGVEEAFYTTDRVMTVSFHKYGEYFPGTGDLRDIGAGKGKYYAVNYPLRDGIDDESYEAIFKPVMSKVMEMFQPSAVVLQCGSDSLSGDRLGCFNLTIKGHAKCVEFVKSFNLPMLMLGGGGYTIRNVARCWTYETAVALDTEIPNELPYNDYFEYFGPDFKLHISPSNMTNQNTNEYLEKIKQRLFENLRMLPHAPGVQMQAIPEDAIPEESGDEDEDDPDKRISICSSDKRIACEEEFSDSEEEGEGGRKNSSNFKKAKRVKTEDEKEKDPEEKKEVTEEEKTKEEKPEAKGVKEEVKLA

Q: For `O=C(NO)c1ccc(CNCc2ccccc2)cc1` [4a, 4-[(benzylamino)methyl]-benzhydroxamic acid], which “selectivity index (SI), hHDAC8 over drHDAC10” value (hHDAC8) is on record?
A: 94

Q: How did the IC50 (hHDAC8) turn out when `O=C(/C=C/C1CCN(Cc2cccc(Cl)c2)CC1)NO` [10d, (E)-3-[1-(3-chlorobenzyl)piperidin-4-yl]acrylhydroxamic acid] was run?
A: 2500 ± 260 nM

Q: Which results are given for `O=C(/C=C/C1CCN(CCc2ccccc2)CC1)NO` [10a, (E)-3-(1-phenethylpiperidin-4-yl)acrylhydroxamic acid]?
A: selectivity index (SI), hHDAC6 over drHDAC10 (hHDAC6): 395; IC50 (hHDAC8): 250 ± 50 nM; selectivity index (SI), hHDAC8 over drHDAC10 (hHDAC8): 23; selectivity index (SI), hHDAC1 over drHDAC10 (hHDAC1): 1454

Q: Which results are given for `Cn1cc(CN2CCC(/C=C/C(=O)NO)CC2)c2ccccc21` [13b, (E)-3-{1-[(1-methylindol-3-yl)methyl]piperidin-4-yl} acrylhydroxamic acid]?
A: expansion and acidification of the lysosomal compartment (LysoTracker DND-99) [1]: induced the expansion and acidification of the lysosomal compartment; apoptosis (annexin-V-FITC / PI) (MV4–11 cells [2]): did not trigger apoptosis; tubulin acetylation compared to non-treated cells [3]: 36–80 fold; drHDAC10 inhibition (in words) (drHDAC10): Potent drHDAC10 inhibition; accumulation of acetylated histone H3 ([4]; 2–15 μM): did not induce a significant accumulation of acetylated histone H3; GAPDH levels [5]: no change of GAPDH levels; HDAC10 protein levels [5]: slightly increased levels of HDAC10; accumulation of cyto-ID positive vesicles (MV4–11 cells [6]): significantly induced the accumulation of cyto-ID positive vesicles

Q: How did the “drHDAC10 inhibition (in words)” value (drHDAC10) turn out when `O=C(NO)c1ccc(CN2CCCCC2)cc1` [6a, 4-(piperidin-1-ylmethyl)benzhydroxamic acid] was run?
A: only weak HDAC10 inhibition

Q: With `Nc1ccccc1NC(=O)c1ccc(CNC(=O)OCc2cccnc2)cc1` [Entinostat (MS-275), entinostat, reference compound] as the compound, how does the “accumulation of acetylated histone H3” value ([4]; 5 μM, positive control) read?
A: induced a highly significant accumulation of acetylated histone H3

Q: How did the “expansion and acidification of the lysosomal compartment (LysoTracker DND-99)” value [1] turn out when `O=C(/C=C/C1CCN(Cc2cccc3ccccc23)CC1)NO` [10c, (E)-3-[1-(naphthalen-1-ylmethyl)piperidin-4-yl]acrylhydroxamic acid] was run?
A: induced the expansion and acidification of the lysosomal compartment

Q: What about the “apoptosis (annexin-V-FITC / PI)” value (MV4–11 cells [2]) of the same compound?
A: did not trigger apoptosis

Q: And the “tubulin acetylation compared to non-treated cells” value [3]?
A: 36–80 fold

Q: What about the “drHDAC10 inhibition (in words)” value (drHDAC10) of the same compound?
A: Potent drHDAC10 inhibition

Q: And the “accumulation of acetylated histone H3” value ([4]; 2–15 μM)?
A: did not induce a significant accumulation of acetylated histone H3

Q: And the GAPDH levels [5]?
A: no change of GAPDH levels

Q: What about the HDAC10 protein levels [5] of the same compound?
A: slightly increased levels of HDAC10

Q: And the IC50 (hHDAC8)?
A: 470 ± 70 nM

Q: And the “accumulation of cyto-ID positive vesicles” value (MV4–11 cells [6])?
A: significantly induced the accumulation of cyto-ID positive vesicles

Q: With `CN1CCN(Cc2ccc(C(=O)NO)cc2)CC1` [6b, 4-[(N-methylpiperazin-1-yl)methyl]benzhydroxamic acid] as the compound, how does the “selectivity index (SI), hHDAC6 over drHDAC10” value (hHDAC6) read?
A: 9

Q: What about the IC50 (hHDAC8) of the same compound?
A: 2400 ± 210 nM

Q: `O=C(NO)c1ccc(CNCc2cccs2)cc1` [4b, 4-{[(thiophen-2-ylmethyl)amino]methyl}benzhydroxamic acid] was tested. Which “selectivity index (SI), hHDAC8 over drHDAC10” value (hHDAC8) did it give?
A: 30

Q: What about the “selectivity index (SI), hHDAC1 over drHDAC10” value (hHDAC1) of the same compound?
A: 85

Q: Which “drHDAC10 inhibition (in words)” value (drHDAC10) does the source give for `O=C(/C=C/C1CCN(Cc2csc3ccccc23)CC1)NO` [13a, (E)-3-{1-[benzothiophen-3-ylmethyl]piperidin-4-yl} acrylhydroxamic acid] here?
A: Potent drHDAC10 inhibition

Q: With `O=C(NO)c1ccc(CNCc2ccsc2)cc1` [4c, 4-{[(thiophen-3-ylmethyl)amino]methyl}benzhydroxamic acid] as the compound, how does the “selectivity index (SI), hHDAC1 over drHDAC10” value (hHDAC1) read?
A: 417

Q: Which “drHDAC10 inhibition (in words)” value (drHDAC10) does the source give for `O=C(/C=C/C1CCN(CCc2c[nH]c3ccccc23)CC1)NO` [10b, (E)-3-{1-[2-(1H-indol-3-yl)ethyl]piperidin-4-yl}acrylhydroxamic acid] here?
A: Potent drHDAC10 inhibition

Q: And the IC50 (hHDAC8)?
A: 420 ± 55 nM
